From patent US20260183274A1, “PDK1 REGULATORY COMPOUND AND COMPOSITION CONTAINING THE SAME” (PROVIBIO CO., LTD., priority 2024, published 2026)

Assays:
[1] = test system: BALB/c mice with induced psoriasis; assay: Psoriasis animal model (Aldara cream, Imiquimod); format: in vivo, mouse
Description: To verify the therapeutic effect of the compound according to the present invention on psoriasis, a psoriasis animal model was established as follows, and the compound according to the present invention was administered to evaluate the alleviation of skin lesions and changes in immune cell patterns.
For the establishment of the psoriasis animal model, BALB/c mice (7 weeks old, female, 20 g) were purchased from HanabioTech Co., Ltd. and acclimatized to the rearing environment for one week.
Subsequently, the hair on the mouse back was shaved using a hair removal device for the first time, and then completely shaved using a depilatory cream (Nicrin Cream (80% thioglycolic acid, Il Dong Pharmaceutical)) for the second time. The mice were then kept for 24 hours to confirm the absence of skin damage.
[Normal control group (Normal, Not Treatment), psoriasis-induced control group (Psoriasis, Not Treatment), psoriasis-induced vehicle control group (Psoriasis, Vehicle), experimental group (GO85, GO86, GO88, GO89, PBK-2024-010, PBK-2024-026, PBK-2025-002, PBK-2025-004, PBK-2025-016, PBK-2025-017, PBK-2025-023)]. […]
Body weights of mice in each group were measured on days 1, 4, and 8 after the start of injection and psoriasis induction. […]
To evaluate the therapeutic effect in a psoriasis-induced mouse model, the PASI (Psoriasis Area and Severity Index) score was measured.
The PASI score is based on three criteria: erythema, scaling, and skin thickness, each scored from 0 (none) to 4 (severe). […]
Observations were conducted daily at the same time, and the same observer visually assessed each criterion and recorded the scores, with the results presented in FIG. 13. […]
All samples were measured in duplicate, and the absorbance was measured at 450 nm using a microplate reader.

[2] = test system: MRL/lpr mice; assay: Lupus animal model (MRL/lpr mice); format: in vivo, mouse; settings: for Hair growth on the facial region: 41-week-old female MRL/lpr, GO15F 30 mg/kg, GO48 1 mg/kg, GO88 0.5 mg/kg i.p. once daily, FIG. 24
Excerpt: The MRL/MpJ-Faslpr/J (Hereinafter Referred to as “MRL/lpr”) used in this experiment is one of the representative animal models for systemic lupus erythematosus (SLE), known to produce various autoantibodies, including antinuclear antibodies, due to the lpr (lymphoproliferation) gene.
In this invention, the period up to 9 weeks of age was considered the pre-disease stage, and the period after 23 weeks of age was considered the post-disease stage, and efficacy verification experiments using this model were conducted.
MRL/lpr mice were imported from The Jackson Laboratory and acclimatized for one week in an SPF (Specific Pathogen Free) facility maintained at a temperature of 21-24° C., humidity of 40-60%, and a 12-hour light-dark cycle (lights on at 7:00 AM, lights off at 7:00 PM).
Subsequently, female and male MRL/lpr mice were mated at a ratio of 2:1 in the same facility, and the female offspring were administered the compound GO15F of the present invention or vehicle at a dose of 30 mg/kg […]
Urine samples were collected once a week from each individual and used for analytical experiments. […]
The protein concentration in urine collected weekly from the control group or experimental group was analyzed using ‘Quick Start™ Bradford 1× Dye Reagent (Bio-Rad, Cat. #5000205).’
In each well of a 96-well plate, 5 μl of urine sample diluted with triple-distilled water and 250 μl of 1× dye reagent were added, reacted, and the absorbance was measured at 595 nm. […]
Each kidney tissue was used to isolate total RNA using TRIzol™ (Invitrozen, Cat. #15596018). RNA from each mouse was quantified at 1 μg using a micro-quantitative spectrophotometer (ThermoFisher Scientific, ND2000) and cDNA was synthesized.
The synthesized cDNA from each mouse was quantified to a concentration of 50 ng using a micro-quantitative spectrophotometer, and qPCR was performed for the cytokines ‘IL-2, IL-6, IL-10, IL-17, TNF-α, IFN-γ’ using a SYBR green probe (CFX96, BIO-RAD).
To investigate the effects of drug administration on renal tissue in MRL/lpr mice, the tissue was fixed in 10% neutral buffered formalin at room temperature, followed by stepwise ethanol penetration for dehydration. The tissue was then embedded in xylene and paraffin.
The blocked tissues were sectioned into 4 μm thick slices using a microtome, followed by deparaffinization, hydration, and staining.
Hematoxylin & Eosin staining, PAS staining, and Masson trichrome staining were performed for pathological evaluation of the tissues.
To determine the extent of IgG deposition in kidney tissue of MRL/lpr mice, immunofluorescence staining was performed using anti-IgG antibodies on paraffin-embedded kidney tissue sections, and the staining results were examined using a fluorescence microscope.
Additionally, in 41-week-old female MRL/lpr mice, the compounds GO15F (30 mg/kg), GO48 (1 mg/kg), and GO88 (0.5 mg/kg) were administered intraperitoneally once daily.
To confirm the proliferative activity of hair follicle cells in the skin tissue of these mice, the mice were sacrificed 14 days after administration of the compounds of the present invention, and Ki-67 immunohistochemistry (IHC) was performed.
For this purpose, the excised skin tissue was fixed in formalin, embedded in paraffin blocks, and stained with a Ki-67-specific antibody on tissue sections prepared as slides.

`CC1(C)CN(CCCCCCCCCCCCC(=O)Nc2nc(N)c3[nH]cnc3n2)CCO1` [Compound 11, 12-[4-(2,2-dimethylmorpholin-4-yl)]dodecyl-N-(6-aminopurine-2-yl) carboxamide] was tested, and the “Efficacy in improving dermatological symptoms” value [1] was “excellent efficacy in improving dermatological symptoms”.

`Nc1ncccc1C(=O)NCCCCCCCCCCCCN1CCNCC1` [Compound 14, 2-Amino-N-(12-(piperazin-1-yl)dodecyl)nicotinamide] was tested, and the “Efficacy in improving dermatological symptoms” value [1] was “excellent efficacy in improving dermatological symptoms” and the “Hair growth on the facial region” value [2] was “hair growth was confirmed”.

For `Nc1nc(NC(=O)CCCCCCCCCCCCN2CCN(CCO)CC2)nc2nc[nH]c12` [Compound 15, 12-[4-(2-hydroxyethyl)piperazin-1-yl]dodecyl-N-(6-aminopurine-2-yl) carboxamide], the “Efficacy in improving dermatological symptoms” value [1] was “excellent efficacy in improving dermatological symptoms”.

With `Nc1ncccc1C(=O)NCCCCCCCCCCCCN1CCOCC1` [Compound 2, 2-Amino-N-(12-morpholin-4-yl-dodecyl)-nicotinamide] the “Hair growth on the facial region” value [2] was “hair growth was confirmed”.

With `Nc1ncccc1C(=O)NCCCCCCCCCCCCF` [Compound 57, 2-Amino-N-(12-fluoro-dodecyl)-nicotinamide] the “Protein concentration in urine (proteinuria)” value ([2]; 30 mg/kg once daily, vs control MRL/lpr, FIG. 16) was “significantly lower than that in the control group”, the “Hair growth on the facial region” value [2] was “hair growth was confirmed” and the “B cells, T cells and macrophages in spleen (flow cytometry)” value ([2]; FIG. 19) was “reduced the increased B cells, T cells, and macrophages”. The “IgG deposition in kidney tissue (immunofluorescence)” value ([2]; FIG. 22) was “significantly lower”, the “Renal pathological tissue staining (glomerular capillary loops)” value ([2]; H&E, PAS, Masson trichrome, FIG. 21) was “the glomerular capillary loops were well maintained” and the “Concentration of anti-dsDNA IgG in blood” value ([2]; serum at necropsy (23 weeks), vs control MRL/lpr, FIG. 17) was “significantly lower”. For the same compound, the “Total IgG concentration in blood” value ([2]; serum at necropsy, vs control MRL/lpr, FIG. 18) was “significantly lower”.
